Source: patent US20260193236A1 (Protego Biopharma, Inc., priority 2022, published 2026)

System: IRE1-XBP1s (XBP1-RLuc splicing reporter in HEK293 T-REx cells)
Assay: IRE1-XBP1s activation assay (XBP1-RLuc splicing reporter, HEK293 T-REx cells, luminescence relative to thapsigargin)
Type: cell-based
Settings: 18 h, compound 10 μM, HEK293 T-REx XBP1-RLuc reporter cells, relative to thapsigargin (Tg) 500 nM, read-out: Activity (IRE1-XBP1s activation, luminescence as % signal relative to thapsigargin, % Tg)
Experimental: IRE1-XBP1s activation Assay: HEK293 T-REx cells stably expressing the XBP1-RLuc splicing reporter were treated with an IRE1-XBP1s activator provided herein (10 μM) in the presence or absence of the IRE1 active site inhibitor 4μ8C (32 μM) for 18 h. Luminescence was shown as the percentage signal relative to thapsigargin (Tg) (500 nM, 18 h).

Question: For `Cc1ccc(OCCN(C)C(=O)Cn2cc(NC(=O)COc3c(F)cncc3C(C)C)cn2)cc1` [Compound 274, 2-(4-(2-((3-fluoro-5-isopropylpyridin-4-yl)oxy)acetamido)-1H-pyrazol-1-yl)-N-methyl-N-(2-(p-tolyloxy)ethyl)acetamide], which activation at 10 µM is on record?
Answer: The activation at 10 µM was under 30%.

Question: `CC(C)c1cncc(F)c1OCCC(=O)Nc1cnn(CC(=O)N(C)CCOc2ccc(C(F)(F)F)nc2)c1` [Compound 277] was tested. Which activation at 10 µM did it give?
Answer: Its activation at 10 µM is over 50%.

Question: With `CC(C)c1cncc(F)c1OCCC(=O)Nc1cnn(CC(=O)N(C)CCOc2cnc(C(F)(F)F)cn2)c1` [Compound 278] as the compound, how does the activation at 10 µM read?
Answer: Its activation at 10 µM is over 50%.

Question: Which activation at 10 µM does the source give for `CC(C)c1cncc(F)c1OCCC(=O)Nc1cnn(CC(=O)N(C)CCOc2ccc(OC(F)(F)F)cn2)c1` [Compound 279] here?
Answer: Its activation at 10 µM is over 50%.

Question: Which activation at 10 µM does the source give for `COc1cc(F)ccc1OCCN(C)C(=O)Cn1cc(NC(=O)CCNc2ncccn2)cn1` [Compound 282, N-(1-(2-((2-(4-fluoro-2-methoxyphenoxy)ethyl)(methyl)amino)-2-oxoethyl)-1H-pyrazol-4-yl)-3-(pyrimidin-2-ylamino)propanamide] here?
Answer: Its activation at 10 µM is under 30%.

Question: With `COc1cc(OCCN(C)C(=O)Cn2cc(NC(=O)CCNc3ncccn3)cn2)ccc1C` [Compound 283] as the compound, how does the activation at 10 µM read?
Answer: The activation at 10 µM was under 30%.

Question: `COc1cc(C)ccc1OCCN(C)C(=O)Cn1cc(NC(=O)CCNc2ncccn2)cn1` [Compound 284] was tested. Which activation at 10 µM did it give?
Answer: The activation at 10 µM was under 30%.

Question: With `COc1cc(NS(=O)(=O)CC(=O)Nc2cnn(CC(=O)N(C)CCOc3ccc(C)cc3)c2)ccn1` [Compound 285, 2-(4-(2-(N-(2-methoxypyridin-4-yl)sulfamoyl)acetamido)-1H-pyrazol-1-yl)-N-methyl-N-(2-(p-tolyloxy)ethyl)acetamide] as the compound, how does the activation at 10 µM read?
Answer: Its activation at 10 µM is under 30%.

Question: Which activation at 10 µM does the source give for `Cc1ccc(OCCN(C)C(=O)Cn2cc(NC(=O)CCNc3ccc4c(n3)OCO4)cn2)cc1` [Compound 286, 3-([1,3]dioxolo[4,5-b]pyridin-5-ylamino)-N-(1-(2-(methyl (2-(p-tolyloxy)ethyl)amino)-2-oxoethyl)-1H-pyrazol-4-yl)propanamide] here?
Answer: Its activation at 10 µM is over 50%.

Question: Which activation at 10 µM does the source give for `Cc1ccc(OCCN(C)C(=O)Cn2cc(NC(=O)COc3ccc4ccccc4n3)cn2)cc1` [Compound 288] here?
Answer: Its activation at 10 µM is under 30%.

Question: `Cc1ccc(OCCN(C)C(=O)Cn2cc(NC(=O)COc3cc4ccccn4n3)cn2)cc1` [Compound 289] was tested. Which activation at 10 µM did it give?
Answer: The activation at 10 µM was over 50%.

Question: `Cc1ccc(OCCN(C)C(=O)Cn2cc(NC(=O)CCNc3ccc4c(c3)OC(F)(F)O4)cn2)cc1` [Compound 290] was tested. Which activation at 10 µM did it give?
Answer: The activation at 10 µM was under 30%.

Question: `Cc1ccc(OCCN(C)C(=O)Cn2cc(NC(=O)CCNc3cc4c(cn3)OCO4)cn2)cc1` [Compound 291] was tested. Which activation at 10 µM did it give?
Answer: The activation at 10 µM was 30 to 50%.

Question: For `Cc1ccc(OCCN(C)C(=O)Cn2cc(NC(=O)C3(CNc4ccc(F)nc4C)CC3)cn2)cc1` [Compound 293, 1-(((6-fluoro-2-methylpyridin-3-yl)amino)methyl)-N-(1-(2-(methyl (2-(p-tolyloxy)ethyl)amino)-2-oxoethyl)-1H-pyrazol-4-yl)cyclopropane-1-carboxamide], which activation at 10 µM is on record?
Answer: Its activation at 10 µM is under 30%.

Question: Which activation at 10 µM does the source give for `Cc1ccc(OCCN(C)C(=O)Cn2cc(NC(=O)CCNc3ncc(-c4ncc(C)o4)cn3)cn2)cc1` [Compound 294, N-(1-(2-(methyl (2-(p-tolyloxy)ethyl)amino)-2-oxoethyl)-1H-pyrazol-4-yl)-3-((5-(5-methyloxazol-2-yl)pyrimidin-2-yl)amino)propanamide] here?
Answer: Its activation at 10 µM is under 30%.

Question: How did the activation at 10 µM turn out when `Cc1ccc(OCCN(C)C(=O)Cn2cc(NC(=O)CCNc3cnc4c(c3)OCO4)cn2)cc1` [Compound 295, 3-([1, 3]dioxolo[4,5-b]pyridin-6-ylamino)-N-(1-(2-(methyl (2-(p-tolyloxy)ethyl)amino)-2-oxoethyl)-1H-pyrazol-4-yl)propanamide] was run?
Answer: Its activation at 10 µM is over 50%.

Question: `C#CCCC1(CCC(=O)Nc2ncccc2OCCC(=O)Nc2cnn(CC(=O)N(C)CCOc3ccc(C)cc3)c2)N=N1` [Compound 296, 3-(3-but-3-ynyldiazirin-3-yl)-N-[3-[3-[[1-[2-[methyl-[2-(4-methylphenoxy)ethyl]amino]-2-oxo-ethyl]pyrazol-4-yl]amino]-3-oxo-propoxy]-2-pyridyl]propanamide] was tested. Which activation at 10 µM did it give?
Answer: Its activation at 10 µM is under 30%.

Same assay, conditions: 18 h, read-out: Activity (IRE1-XBP1s activation, luminescence as % signal relative to thapsigargin, % Tg)

Question: With `Cc1ccc(OCCN(C)C(=O)Cn2cc(NC(=O)COc3cccc4cccnc34)cn2)cc1` [Compound 287, N-methyl-2-(4-(2-(quinolin-8-yloxy)acetamido)-1H-pyrazol-1-yl)-N-(2-(p-tolyloxy)ethyl)acetamide] as the compound, how does the activation at 10 µM read?
Answer: The activation at 10 µM was under 30%.
